Values belong to the compound of their own block, whether it stands above or below them.
Columns and labels:
human TRPM8 [1] = biological target: T1, human TRPM8 (UniProt Q8R4D5); assay: TRPM8 Protocol-FLIPR Assay (intracellular Ca2+); assay type: cell-based; details: for TRPM8 Time Course Activity 50 sec: fluorescence at 50 sec; for TRPM8 Time Course Activity 50 sec % of WS5: vs 30 uM WS-5
T1 construct: Receptor Activity TRPM8; Receptor Activity TRPM8; other: test compound at 0.001%; relative to WS5 control (30 microMolar); HEK 293 cells; other: test compound at 0.004%; other: test compound at 5.2E−5%; relative to WS5 control

human TRPM8 [2] = biological target: T2, human TRPM8; assay: TRPM8 Protocol-FLIPR Assay (intracellular Ca2+); assay type: cell-based; details: for TRPM8 Time Course Activity 5 min % of WS5 / TRPM8 Time Course Activity 10 min % of WS5: dose 12.2 nM, vs 30 uM WS-5
T2 construct: Receptor Activity TRPM8; Receptor Activity TRPM8; other: test compound at 0.001%; relative to WS5 control (30 microMolar); HEK 293 cells; other: test compound at 0.004%; other: test compound at 5.2E−5%; relative to WS5 control

[3] = Sensation reported by panelists; assay type: in vivo; details: perceived sensation, in words

TRPM8 Time Course Activity 50 sec (human TRPM8 [1]; dose 6.1 nM): 884.0 | TRPM8 Time Course Activity 50 sec (human TRPM8 [1]; dose 12.2 nM): 3018.0 | TRPM8 Time Course Activity 50 sec (human TRPM8 [1]; dose 24.4 nM): 1936.0 | TRPM8 Time Course Activity 50 sec (human TRPM8 [1]; dose 48.8 nM): 2916.0 | TRPM8 Time Course Activity 50 sec (human TRPM8 [1]; dose 97.6 nM): 3963.0 | TRPM8 Time Course Activity 50 sec (human TRPM8 [1]; dose 195 nM): 5418.0 | TRPM8 Time Course Activity 50 sec % of WS5 (human TRPM8 [1]; dose 390 nM): 75.5% | TRPM8 Time Course Activity 50 sec (human TRPM8 [1]; dose 390 nM): 7592.0 | TRPM8 Time Course Activity 50 sec % of WS5 (human TRPM8 [1]; dose 781 nM): 97.3% | TRPM8 Time Course Activity 50 sec (human TRPM8 [1]; dose 781 nM): 9786.0 | TRPM8 Time Course Activity 50 sec % of WS5 (human TRPM8 [1]; dose 1.563 uM): 110.5% | TRPM8 Time Course Activity 50 sec (human TRPM8 [1]; dose 1.563 uM): 11114.0 | TRPM8 Time Course Activity 50 sec % of WS5 (human TRPM8 [1]; dose 3.125 uM): 115.7% | TRPM8 Time Course Activity 50 sec (human TRPM8 [1]; dose 3.125 uM): 11637.0 | TRPM8 Time Course Activity 50 sec % of WS5 (human TRPM8 [1]; dose 6.25 uM): 121.6% | TRPM8 Time Course Activity 50 sec (human TRPM8 [1]; dose 6.25 uM): 12229.0 | TRPM8 Time Course Activity 50 sec % of WS5 (human TRPM8 [1]; dose 12.5 uM): 123.6% | TRPM8 Time Course Activity 50 sec (human TRPM8 [1]; dose 12.5 uM): 12430.0 | TRPM8 Time Course Activity 50 sec % of WS5 (human TRPM8 [1]; dose 25 uM): 129.7% | TRPM8 Time Course Activity 50 sec (human TRPM8 [1]; dose 25 uM): 13046.0 | TRPM8 Time Course Activity 50 sec % of WS5 (human TRPM8 [1]; dose 50 uM): 123.5% | TRPM8 Time Course Activity 50 sec (human TRPM8 [1]; dose 50 uM): 12419.0 | TRPM8 Time Course Activity 50 sec % of WS5 (human TRPM8 [1]; dose 100 uM): 125.7% | TRPM8 Time Course Activity 50 sec (human TRPM8 [1]; dose 100 uM): 12646.0 | EC50 (human TRPM8 [2]; 3 min): 0.00148 µM | TRPM8 Time Course Activity 5 min % of WS5 (human TRPM8 [2]; 5 min): 103.8% | TRPM8 Time Course Activity 10 min % of WS5 (human TRPM8 [2]; 10 min): 115.5%
SMILES: CC(C)[C@@H]1CC[C@@H](C)C[C@H]1C(=O)NCC(NC(=O)[C@@H](C)N)c1ccccc1 (single isomer, unassigned) [Compound 28 fraction 1]
sensation (cooling, warming, burning) [3]: intense cooling

EC50 (human TRPM8 [2]; 3 min): 0.0555 µM | EC50 (human TRPM8 [2]; 5 min): 0.0457 µM | EC50 (human TRPM8 [2]; 10 min): 0.0374 µM | TRPM8 Time Course Activity 5 min % of WS5 (human TRPM8 [2]; 5 min): 65.7% | TRPM8 Time Course Activity 10 min % of WS5 (human TRPM8 [2]; 10 min): 71.1%
SMILES: CC(C)[C@@H]1CC[C@@H](C)C[C@H]1C(=O)NCC(NC(=O)[C@@H](C)N)c1ccccc1 (single isomer, unassigned) [Compound 28 fraction 2]
sensation (cooling, warming, burning) [3]: did not provide a cooling response

From US9974761B2, “Medications for deposition on biological surfaces” (The Procter & Gamble Company, priority 2014, dated 2018)
